Source: patent publication US8354419B2, “Benzimidazole analogues for the treatment or prevention of flavivirus infections” (Vertex Pharmaceuticals Incorporated, priority 2009, dated 2013)

Test system: HCV (Ib) RNA replication
Assay: Cell-based luciferase reporter HCV (1b) RNA replication assay (replicon cell lines Huh-7 5.2 and ET)
Set-up: species or system Hepatitis C virus
Settings: Hepatitis C virus, Huh-7, 96 h, HCV 1b genotype replicon, luciferase readout, 4 days incubation; read-out: EC50_1b
Outline: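 Compounds were tested at eleven concentrations in duplicate over 4 days at 37 °C, 5% CO2. The cells were luciferase-reporter HCV 1b replicon lines 5.2 (NS5A adaptive mutation) or ET (NS4B mutation). Luminescence of lysates was measured, and IC50s were derived by nonlinear curve fitting.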

| Structure (SMILES) | EC50 [nM] |
| --- | --- |
| COC(=O)N[C@H](C(=O)N1C[C@@H](C)C[C@H]1c1nc2cc(-c3ccc4cc(-c5ccc6[nH]c([C@@H]7C[C@H](C)CN7C(=O)[C@@H](NC(=O)OC)C(C)C)nc6c5)ccc4c3)ccc2[nH]1)C(C)C [Compound 330] | ≤ 5 |
| COC(=O)N[C@H](C(=O)N1CCC[C@H]1c1nc2cc(-c3ccc(-c4ccc5nc([C@@H]6CCCN6C(=O)[C@@H](NC(=O)OC)C(C)C)[nH]c5c4)c4c3OCO4)ccc2[nH]1)C(C)C [Compound 146] | ≤ 5 |
| COC(=O)N[C@H](C(=O)N1CC[C@H](C)[C@H]1c1nc2cc(-c3ccc(-c4ccc5[nH]c([C@@H]6[C@@H](C)CCN6C(=O)[C@@H](NC(=O)OC)C(C)C)nc5c4)cc3)ccc2[nH]1)C(C)C [Compound 267] | ≤ 5 |
| COC(=O)N[C@H](C(=O)N1C[C@@H](C)C[C@H]1c1nc2cc(-c3ccc(-c4ccc5[nH]c([C@@H]6C[C@H](C)CN6C(=O)[C@@H](NC(=O)OC)C(C)C)nc5c4)c(C(=O)OC)c3)ccc2[nH]1)C(C)C [Compound 268] | ≤ 5 |
| COC(=O)N[C@H](C(=O)N1CCC[C@H]1c1nc2cc(-c3cc4sc(-c5ccc6nc([C@@H]7CCCN7C(=O)[C@@H](NC(=O)OC)[C@@H](C)OC)[nH]c6c5)cc4s3)ccc2[nH]1)[C@@H](C)OC [Compound 199] | ≤ 5 |
| COC(=O)N(C)[C@H](C(=O)N1C[C@@H](C)C[C@H]1c1nc2cc(-c3ccc(-c4ccc5[nH]c([C@@H]6C[C@H](C)CN6C(=O)[C@@H](Nc6ncccn6)C(C)C)nc5c4)cc3)ccc2[nH]1)C(C)C [Compound 289] | ≤ 5 |
| COC(=O)N[C@H](C(=O)N1C[C@H](F)C[C@H]1c1nc2cc(-c3ccc(-c4ccc5nc([C@@H]6C[C@@H](F)CN6C(=O)[C@@H](NC(=O)OC)C(C)C)[nH]c5c4)cc3)ccc2[nH]1)C(C)C [Compound 165] | ≤ 5 |
| COC(=O)N[C@H](C(=O)N1CCC[C@H]1c1nc2cc(-c3ccc(-c4ccc5nc([C@@H]6CCCN6C(=O)[C@@H](NC(=O)OC)C(C)C)[nH]c5c4)cc3[N+](=O)[O-])ccc2[nH]1)C(C)C [Compound 141] | ≤ 5 |
| COC(=O)N[C@H](C(=O)N1CCC[C@H]1c1nc2cc(-c3ccc(-c4ccc5nc([C@@H]6CCCN6C(=O)[C@@H](NC(=O)OC)C(C)C)n(C)c5c4)cc3)ccc2[nH]1)C(C)C [Compound 255] | ≤ 5 |
| CC(=O)N[C@H](C(=O)N1CCC[C@H]1c1nc2cc(C#Cc3ccc4[nH]c([C@@H]5CCCN5C(=O)[C@@H](NC(C)=O)C(C)C)nc4c3)ccc2[nH]1)C(C)C [Compound 96] | 5 to 5000 |
| COC(=O)N[C@H](C(=O)N1CCC[C@H]1c1nc2cc(-c3ccc(-c4ccc5nc([C@@H]6CCCN6C(=O)[C@@H](NC(=O)OC)C(C)C)[nH]c5c4)cc3C(=O)OC)ccc2[nH]1)C(C)C [Compound 181] | ≤ 5 |
| COC(=O)N[C@H](C(=O)N1CCC[C@H]1c1nc2ccc(-c3cn(-c4ccc5nc([C@@H]6CCCN6C(=O)[C@@H](NC(=O)OC)C(C)C)[nH]c5c4)nn3)cc2[nH]1)C(C)C [Compound 21, ((S)-1-{(S)-2-[6-(1-{2-[(S)-1-((S)-2-Methoxycarbonylamino-3-methyl-butyryl)-pyrrolidin-2-yl]-3H-benzoimidazol-5-yl}-1H-[1,2,3]triazol-4-yl)-1H-benzoimidazol-2-yl]-pyrrolidine-1-carbonyl}-2-methyl-propyl)-carbamic acid methyl ester] | ≤ 5 |
| COC(=O)N[C@H](C(=O)N1CCC[C@H]1c1nc2cc(C#Cc3ccc4nc([C@@H]5CCCN5C(=O)[C@@H](NC(=O)OC)C5CCCCC5)[nH]c4c3)ccc2[nH]1)C(C)C [Compound 115] | ≤ 5 |
| COC(=O)N[C@H](C(=O)N1CCC[C@H]1c1nc2c(F)cc(-c3ccc(-c4cc(F)c5nc([C@@H]6CCCN6C(=O)[C@@H](NC(=O)OC)C(C)C)[nH]c5c4)cc3)cc2[nH]1)C(C)C [Compound 250] | ≤ 5 |
| CCOCCC(=O)N1CCC[C@H]1c1nc2cc(C#Cc3ccc4[nH]c([C@@H]5CCCN5C(=O)CCOCC)nc4c3)ccc2[nH]1 [Compound 107] | 5 to 5000 |
| O=C(CC1CCCC1)N1CCC[C@H]1c1nc2cc(C#Cc3ccc4[nH]c([C@@H]5CCCN5C(=O)CC5CCCC5)nc4c3)ccc2[nH]1 [Compound 125] | 5 to 5000 |
| CCC(CC)CN1CCC[C@H]1c1nc2cc(C#Cc3ccc4[nH]c([C@@H]5CCCN5CC(CC)CC)nc4c3)ccc2[nH]1 [Compound 140] | 5 to 5000 |
| C(#Cc1ccc2[nH]c([C@@H]3CCCN3CC3CCCCC3)nc2c1)c1ccc2[nH]c([C@@H]3CCCN3CC3CCCCC3)nc2c1 [Compound 136] | 5 to 5000 |
| O=C1CC[C@H](C(=O)N2CCC[C@H]2c2nc3cc(C#Cc4ccc5[nH]c([C@@H]6CCCN6C(=O)[C@H]6CCC(=O)N6)nc5c4)ccc3[nH]2)N1 [Compound 86] | > 5000 |
| COC(=O)N[C@H](C(=O)N1CCC[C@H]1c1nc2cc(-c3nnc(-c4ccc5[nH]c([C@@H]6CCCN6C(=O)[C@@H](NC(=O)OC)C(C)C)nc5c4)s3)ccc2[nH]1)C(C)C [Compound 184] | ≤ 5 |

| Structure (SMILES) | EC50 [nM] |
| --- | --- |
| COC(=O)N[C@H](C(=O)N1C[C@@H](C)C[C@H]1c1nc2cc(-c3ccc(-c4ccc5[nH]c([C@@H]6CC(C)(C)CN6C(=O)[C@@H](NC(=O)OC)C(C)C)nc5c4)cc3)ccc2[nH]1)C(C)C [Compound 327] | ≤ 5 |
| CC(C)(C)OC(=O)N1CC[C@H]1C(=O)N1CCC[C@H]1c1nc2cc(C#Cc3ccc4[nH]c([C@@H]5CCCN5C(=O)[C@@H]5CCN5C(=O)OC(C)(C)C)nc4c3)ccc2[nH]1 [Compound 129] | > 5000 |
| C(#Cc1ccc2[nH]c([C@@H]3CCCN3CCC3CCOCC3)nc2c1)c1ccc2[nH]c([C@@H]3CCCN3CCC3CCOCC3)nc2c1 [Compound 138] | 5 to 5000 |
| COC[C@H](NC(=O)OC)C(=O)N1CCC[C@H]1c1nc2cc(C#Cc3ccc4nc([C@@H]5CCCN5C(=O)[C@H](COC)NC(=O)OC)[nH]c4c3)ccc2[nH]1 [Compound 71] | ≤ 5 |
| COC(=O)N[C@H](C(=O)N1CCC[C@H]1c1nc2cc(-c3ccc(-c4ccc5c(c4)nc([C@@H]4CCCN4C(=O)[C@@H](NC(=O)OC)C(C)C)n5C)cc3)ccc2[nH]1)C(C)C [Compound 232] | ≤ 5 |
| COC(=O)N[C@H](C(=O)N1CCC[C@H]1c1nc2cc(C#Cc3ccc4nc([C@@H]5CCCN5C(=O)[C@@H](NC(=O)OC(C)(C)C)C5CCCCC5)[nH]c4c3)ccc2[nH]1)C(C)C [Compound 77] | ≤ 5 |
| C[C@H]1C[C@@H](c2nc3ccc(-c4ccc(-c5ccc6nc([C@@H]7C[C@H](C)CN7C(=O)OC(C)(C)C)n(C)c6c5)cc4)cc3[nH]2)N(C(=O)OC(C)(C)C)C1 [Compound 292] | 5 to 5000 |
| COC(=O)N[C@H](C(=O)N1C[C@@H](C)C[C@H]1c1nc2ccc(-c3ccc(-c4ccc(-c5ccc6nc([C@@H]7C[C@H](C)CN7C(=O)[C@@H](NC(=O)OC)C(C)C)[nH]c6c5)cc4)cc3)cc2[nH]1)C(C)C [Compound 263] | ≤ 5 |
| COC(=O)N[C@H](CN1CCC[C@H]1c1nc2cc(-c3ccc(-c4ccc5[nH]c([C@@H]6CCCN6C[C@@H](NC(=O)OC)C(C)C)nc5c4)cc3)ccc2[nH]1)C(C)C [Compound 195] | 5 to 5000 |
| CCC[C@H](NC(C)=O)C(=O)N1CCC[C@H]1c1nc2cc(C#Cc3ccc4[nH]c([C@@H]5CCCN5C(=O)[C@H](CCC)NC(C)=O)nc4c3)ccc2[nH]1 [Compound 109] | 5 to 5000 |
| COC(=O)N[C@H](C(=O)N1C[C@@H](C)C[C@H]1c1nc2cc(-c3ccc(-c4ccc5[nH]c([C@@H]6C[C@H](C)CN6C(=O)[C@H](C(C)C)N(C)C(=O)OC)nc5c4)cc3F)ccc2[nH]1)C(C)C [Compound 285] | ≤ 5 |
| COC(=O)N[C@H](C(=O)N1C[C@@H](F)C[C@H]1c1nc2cc(-c3ccc(-c4ccc5nc([C@@H]6C[C@H](F)CN6C(=O)[C@@H](NC(=O)OC)C(C)C)[nH]c5c4)cc3)ccc2[nH]1)C(C)C [Compound 169] | ≤ 5 |
| COC(=O)N[C@H](C(=O)N1C[C@@H](OC)C[C@H]1c1nc2cc(-c3ccc(-c4ccc5[nH]c([C@@H]6C[C@H](OC)CN6C(=O)[C@@H](NC(=O)OC)C(C)C)nc5c4)cc3)ccc2[nH]1)C(C)C [Compound 222] | ≤ 5 |
| COC(=O)N[C@@H](C)C(=O)N1CCC[C@H]1c1nc2cc(C#Cc3ccc4[nH]c([C@@H]5CCCN5C(=O)[C@H](C)NC(=O)OC)nc4c3)ccc2[nH]1 [Compound 50] | ≤ 5 |
| O=C(NC1CC1)c1nc2cc(C#Cc3ccc4[nH]c([C@@H]5CCCN5C(=O)OCc5ccccc5)nc4c3)ccc2[nH]1 [Compound 51] | 5 to 5000 |
| CC[C@@H](C(=O)N1CCC[C@H]1c1nc2cc(-c3ccc(-c4ccc5nc([C@@H]6CCCN6C(=O)[C@H](CC)N(C)C(=O)OC)[nH]c5c4)c4c3OCO4)ccc2[nH]1)N(C)C(=O)OC [Compound 215] | ≤ 5 |
| COC(=O)N[C@H](C(=O)N1CCC[C@H]1c1nc2cc(-c3ccc(-c4ccc5[nH]c([C@@H]6CC(F)(F)CN6C(=O)[C@@H](NC(=O)OC)C(C)C)nc5c4)cc3)ccc2[nH]1)C(C)C [Compound 187] | ≤ 5 |
| COC(=O)N[C@H](C(=O)N1CC(F)(F)C[C@H]1c1nc2cc(C#Cc3ccc4nc([C@@H]5CC(F)(F)CN5C(=O)[C@@H](NC(=O)OC)C(C)C)[nH]c4c3)ccc2[nH]1)C(C)C [Compound 90] | ≤ 5 |
| CC(C)(C)OC(=O)N[C@H](CC1CCC1)C(=O)N1CCC[C@H]1c1nc2cc(C#Cc3ccc4[nH]c([C@@H]5CCCN5C(=O)[C@@H](CC5CCC5)NC(=O)OC(C)(C)C)nc4c3)ccc2[nH]1 [Compound 113] | ≤ 5 |
| COC(=O)N[C@H](C(=O)N1CCC[C@H]1c1nc2cc(F)c(-c3ccc(-c4cc5[nH]c([C@@H]6CCCN6C(=O)[C@@H](NC(=O)OC)C(C)C)nc5cc4F)cc3)cc2[nH]1)C(C)C [Compound 27, Dimethyl (2S,2′S)-1,1′-((2S,2′S)-2,2′-(5,5′-(1,4-phenylene)bis(6-fluoro-1H-benzo[d]imidazole-5,2-diyl))bis(pyrrolidine-2,1-diyl))bis(3-methyl-1-oxobutane-2,1-diyl)dicarbamate] | ≤ 5 |
